PubChem BioAssay AID515 (SGCOxCompounds, 2006)

Target: Mitogen-activated protein kinase kinase kinase 5 (Homo sapiens) (UniProt Q99683)
Experiment: ligand-induced stabilization of human MAP3K5 kinase – biophysical, DSF, SYPRO orange, recombinant protein (AID 515)
Conditions: recombinant MAP3K5, DSF thermal shift, at 10 µM, buffer 10 mM HEPES, pH 7.5, NaCl 150 mM, active compounds read high

Mitogen-activated protein kinase kinase kinase 5 (Homo sapiens), sequence (Q99683 whole entry, looked up): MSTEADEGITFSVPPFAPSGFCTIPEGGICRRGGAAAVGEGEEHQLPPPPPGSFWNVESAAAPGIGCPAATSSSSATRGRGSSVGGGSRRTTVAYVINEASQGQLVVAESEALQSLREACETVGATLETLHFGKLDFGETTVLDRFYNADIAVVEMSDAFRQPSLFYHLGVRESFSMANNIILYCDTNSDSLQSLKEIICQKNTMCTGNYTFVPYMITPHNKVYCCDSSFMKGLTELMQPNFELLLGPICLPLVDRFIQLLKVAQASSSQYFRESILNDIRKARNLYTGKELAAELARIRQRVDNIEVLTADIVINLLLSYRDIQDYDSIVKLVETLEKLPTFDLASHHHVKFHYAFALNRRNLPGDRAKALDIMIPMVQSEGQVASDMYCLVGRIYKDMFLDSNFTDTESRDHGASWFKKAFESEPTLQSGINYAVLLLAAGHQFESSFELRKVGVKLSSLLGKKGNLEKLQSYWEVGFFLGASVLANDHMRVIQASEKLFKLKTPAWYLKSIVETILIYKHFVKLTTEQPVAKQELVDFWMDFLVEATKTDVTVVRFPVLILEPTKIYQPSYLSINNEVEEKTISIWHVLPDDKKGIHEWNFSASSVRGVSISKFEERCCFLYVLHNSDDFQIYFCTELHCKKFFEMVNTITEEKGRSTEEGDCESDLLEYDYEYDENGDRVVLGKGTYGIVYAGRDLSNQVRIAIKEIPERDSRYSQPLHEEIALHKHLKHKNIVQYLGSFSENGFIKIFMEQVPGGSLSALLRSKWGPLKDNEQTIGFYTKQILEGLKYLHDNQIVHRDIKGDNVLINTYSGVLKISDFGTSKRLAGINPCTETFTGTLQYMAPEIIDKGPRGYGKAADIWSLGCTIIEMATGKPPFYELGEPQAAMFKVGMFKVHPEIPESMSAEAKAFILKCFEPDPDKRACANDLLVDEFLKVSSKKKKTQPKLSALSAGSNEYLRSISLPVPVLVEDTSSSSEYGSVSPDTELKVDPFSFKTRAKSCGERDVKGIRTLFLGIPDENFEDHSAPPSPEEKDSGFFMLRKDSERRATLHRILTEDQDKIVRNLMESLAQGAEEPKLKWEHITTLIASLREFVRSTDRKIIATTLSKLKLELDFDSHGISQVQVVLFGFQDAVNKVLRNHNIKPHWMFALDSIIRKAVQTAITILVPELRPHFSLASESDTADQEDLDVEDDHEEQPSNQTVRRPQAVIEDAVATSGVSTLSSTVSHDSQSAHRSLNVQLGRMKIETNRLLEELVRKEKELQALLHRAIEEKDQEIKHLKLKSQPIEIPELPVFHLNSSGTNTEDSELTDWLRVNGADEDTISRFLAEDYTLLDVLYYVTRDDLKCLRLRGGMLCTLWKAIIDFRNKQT

Compound	Tm shift [Celsius]
O=C(c1ccc(Nc2nccc(-c3cc4ccccc4s3)n2)cc1)N1CCC(N2CCCC2)CC1	5.1
Cn1cc(/C=C2\C(=O)Nc3ccc(S(N)(=O)=O)cc32)c2ccccc21	10
O=Nc1c(-c2c(O)[nH]c3ccc(S(O)(O)O)cc23)[nH]c2ccccc12	4.04
O=Nc1c(-c2c(O)[nH]c3ccccc23)[nH]c2ccccc12	6.1
O=C(Nc1ccc(N2CCOCC2)cc1)Nc1ccc(Cl)c(Cl)c1	5.7
Cc1ccc2c(c1)=C(c1[nH]c(=S)[nH]c1O)C(=O)N=2	4.5
CC1N=C2SC=CN2C(=O)C1CCN1CCC(=C(c2ccccc2)c2ccc(F)cc2)CC1 (stereo not drawn)	4.8
Nc1nc(Nc2ccc(S(N)(=O)=O)cc2)nn1C(=S)Nc1c(F)cccc1F	16.9
N#Cc1ccc(-c2cnc3ccc(NC4CCOCC4)nn23)cc1	3.5
O=c1c(O)c(-c2ccc(O)c(O)c2)oc2cc(O)cc(O)c12	3.7
O=Nc1c(-c2c(O)[nH]c3ccc(I)cc23)[nH]c2ccccc12	5.72
O=C1Nc2ccccc2/C1=C\c1cnc[nH]1	4.76
COc1cccc(N=Cc2c(O)[nH]c3ccccc23)c1	3.2
CCOc1c(Br)ccc2c1sc1nc[nH]c(=O)c12	3.9
NC1=N/C(=C2/CCNC(=O)c3[nH]c(Br)cc32)C(=O)N1	8.7
OCC(O)CCO/N=C1/C(c2c(O)[nH]c3ccccc23)=Nc2ccccc21 (stereo not drawn)	5.6
Cc1c2ccncc2c(C)c2c1[nH]c1ccccc12	6.3
O=c1[nH]cnc2scc(-c3cccs3)c12	3.7

Same assay, conditions: recombinant MAP3K5, DSF thermal shift, at 10 µM, buffer 10 mM HEPES, pH 7.5, NaCl 150 mM, with 50 µM L-Arg/L-Glu (1:1), active compounds read high

Compound	Tm shift [Celsius]
O=Nc1c(-c2c(O)[nH]c3cc(Br)ccc23)[nH]c2ccccc12	8.7
NC(=O)Nc1sc(-c2ccccc2)cc1C(N)=O	5.94
O=C1c2ccccc2-c2n[nH]c3cccc1c23	8.63
CCN(CC)CCNC(=O)c1c(C)[nH]c(/C=C2\C(=O)Nc3ccc(Cl)cc32)c1C	6.43
NC1=N/C(=C2\CCNC(=O)c3[nH]ccc32)C(=O)N1	4.65
CC1N=C2SC=CN2C(=O)C1CCN1CCC(=C(c2ccccc2)c2ccc(F)cc2)CC1 (stereo not drawn)	6.07
Cc1cc(C=C2C(=O)C=CC2=O)cc(C)c1O	3.1
O=C1NC(=O)c2c1c1c3ccccc3n3c1c1c2c2ccccc2n1[C@@H]1CCC3O1	6.97
O=c1c(O)c(-c2ccc(O)c(O)c2)oc2cc(O)ccc12	3.96
NC1=N/C(=C2/CCNC(=O)c3[nH]c(Br)cc32)C(=O)N1	12.5
O=C1Nc2ccccc2/C1=C/c1ccc[nH]1	5.01
CC(O)(O)C1(O)C[C@@H]2O[C@@]1(C)n1c3ccccc3c3c4c(c5c6ccccc6n2c5c31)C(=O)NC4 (stereo partly drawn)	14.1
O=C1NCc2c1c1c3ccccc3[nH]c1c1[nH]c3ccccc3c21	8.53
CC(C)(C)c1nc2c3cc[nH]c(=O)c3c3cc(F)ccc3c2[nH]1	8.26
COc1ccc2c(c1)/C(=C/c1cnc[nH]1)C(=O)N2	5.19
